According to US20190046662A1, “Compositions and Methods for Treating Neuropathic Pain” (Rutgers, The State University of New Jersey, priority 2016, published 2019):

Assays:
Format in all cases: in vivo, rat
[1] = target: T1, hM4Di receptors expressed in TG (Homo sapiens, UniProt P08173, A203G/Y113C); assay: Orofacial formalin test after AAV5-hSyn-hM4Di-mCherry injection into TG (Example 1); details: rats with AAV5-hSyn-hM4Di-mCherry in TG, vs vehicle
T1 construct: expressed in transfected cells; host or cells: rat trigeminal ganglion neurons in vivo, transduced with AAV5 (synapsin promoter)
T1 sequence (P08173 1-479 Y113C/A203G): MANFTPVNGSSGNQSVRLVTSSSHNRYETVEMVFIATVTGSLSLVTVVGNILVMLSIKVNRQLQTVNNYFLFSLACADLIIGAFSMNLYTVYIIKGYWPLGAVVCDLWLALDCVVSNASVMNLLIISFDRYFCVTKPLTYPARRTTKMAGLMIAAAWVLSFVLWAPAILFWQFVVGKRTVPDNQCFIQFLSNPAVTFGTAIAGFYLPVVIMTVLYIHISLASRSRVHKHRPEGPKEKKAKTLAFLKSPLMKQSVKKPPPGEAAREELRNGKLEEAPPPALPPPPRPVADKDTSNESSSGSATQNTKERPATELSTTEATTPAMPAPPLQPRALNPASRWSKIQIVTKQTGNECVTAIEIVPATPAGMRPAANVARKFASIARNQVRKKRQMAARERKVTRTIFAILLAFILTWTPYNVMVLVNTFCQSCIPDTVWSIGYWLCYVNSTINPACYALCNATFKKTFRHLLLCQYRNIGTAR
From the text: The orofacial formalin model is well established for inducing behavioral and molecular changes indicating pain. The formalin model mimics the clinical situation of an acute insult that wanes rapidly. Models of trigeminal pain and their behavioral and molecular assessments have been described (Benoliel et al. (2001) Pain 91:111-21; Benoliel et al. (2001) Neurosci. Lett., 297:151-4; Benoliel et al. (2002) Pain 97:203-12; Benoliel et al. (2002) Pain 99:567-78). There is increased and intense directed facial grooming following injection of formalin into the rat vibrissal pad, and the duration of grooming is thought to represent the level of pain (Clavelou et al. (1995) Pain 62:295-301; Raboisson et al. (1995) J. Neurophysiol., 73:496-505; Sukriti et al. (2004) Methods Find Exp. Clin. Pharmacol., 26:253-6). At day 37 after virus injection (to allow for viral transfection and DREADD expression), acute pain was induced by subcutaneous injection of 50 μL of 1.5% formalin into the rat's vibrissal pad. Formalin activates Aδ and C nociceptors as well as trigeminal and spinal nociceptive neurons. Formalin-induced unilateral pain is biphasic, with an early short-lasting (3-5 minutes) phase, followed after a quiescent period by a second, prolonged (20-40 minutes) tonic phase. The orofacial formalin test is a valid and reliable way of producing and quantifying nociception in the trigeminal region of the rat (Raboisson et al. (2004) Neurosci. Biobehay. Rev., 28:219-26; Le Bars et al. (2001) Pharmacol. Rev., 53:597-652; Vos et al. (1998) Pain 76:173-8). The concentration of formalin used allows for the detection of both hypo- and hyperalgesic effects. The time that the animal spends rubbing the injected area with fore- or hind paws was recorded. Thirty minutes prior to injecting formalin the animals received CNO ([…], ip) or vehicle treatment.

[2] = target: T2, hSyn-hM4D (Homo sapiens, UniProt P08173, A203G/Y113C); assay: Pain-like behavior after infraorbital nerve chronic constriction injury (IoN-CCI), synapsin-DREADD (hSyn-hM4D); details: IoN-CCI males
T2 construct: expressed in transfected cells; host or cells: rat trigeminal ganglion neurons in vivo, viral vector with synapsin promoter
T2 sequence (P08173 1-479 Y113C/A203G): T1 sequence (P08173 1-479 Y113C/A203G)
From the text: For the infraorbital nerve chronic constriction injury (ION-CCI), ˜0.5 cm of the infraorbital nerve will be freed and two chromic gut ligatures will be loosely tied around it (2 mm apart) prior to closure of the incision (all performed under ketamine/xylazine anesthesia). As a control, other rats will undergo sham surgery where the infraorbital nerve is exposed but left untouched. This model results in persistent pain beginning at about 2 weeks postoperatively and lasting at least 3 weeks (Benoliel et al. (2001) Neurosci. Lett., 297:151-4; Benoliel et al. (2002) Pain 97:203-12), allowing for the assessment of the effect of vehicle vs CNO/DREADD-mediated inhibition of TG neurons on this behavior at multiple time points. Fos expression and cAMP levels may also be measured in the TG to correlate these molecular endpoints to behavioral effects of DREADD activation. The rats will also undergo repeated stimulation with a 2-g von Frey hair applied to the hairy skin of the vibrissae on the operated side to induce Fos (Vos et al. (1995) J. Comp. Neurol., 357:362-75). Activation of hM4Di receptors will reduce Fos in the TG following von Frey stimulation.
The effects of synapsin-DREADD activation with CNO on pain-like behavior following chronic constriction injury (CCI) of the infraorbital nerve (ION) were also studied (FIG. 6). The mean von Frey detection thresholds (±SEM) (left) and the mean response scores (±SEM) (right) to the pin-prick stimulation applied to the vibrissal pads were plotted. All animals (males, n=4 per group) were exposed to the infraorbital nerve chronic constriction injury (IoN-CCI) unilaterally. Following IoN-CCI, all animals had synapsin-DREADD (hSyn-hM4D) injected into the ipsilateral trigeminal ganglion. At post-operative day 26 (D26) CNO or vehicle was delivered intraperitoneally 30 minutes prior to behavioral testing.

[3] = target: T3, hTac1-hM4D (Homo sapiens, UniProt P08173, A203G/Y113C); assay: von Frey detection threshold, Tac1-DREADD (hTac1-hM4D) in right trigeminal ganglion, non-CCI animals; details: females, n=7 per group, CNO i.p. vs vehicle
T3 construct: expressed in transfected cells; host or cells: rat trigeminal ganglion neurons in vivo, viral vector with Tac1 promoter
T3 sequence (P08173 1-479 Y113C/A203G): T1 sequence (P08173 1-479 Y113C/A203G)
From the text: The effects of Tac1-DREADD activation with CNO on von Frey detection threshold were also studied (FIG. 7). All animals (female, n=7 per group) had Tachykinin 1-DREADD (hTac1-hM4D; Tac1 promoter driven DREADD) injected into the right trigeminal ganglion. Average von Frey detection thresholds (±SEM) are plotted following intraperitoneal administration of CNO or vehicle.

[4] = CNO ip 30 min prior to formalin

C[N+]1([O-])CCN(C2=Nc3cc(Cl)ccc3Nc3ccccc32)CC1 [CNO, clozapine N-oxide]
total time spent grooming after formalin ([1]; CNO (10 mg/ml, ip) 30 min prior to 50 μL 1.5% formalin s.c. vibrissal pad, day 37 after virus, n=3/group, p<0.04): significantly reduced
grooming in early phase (<9 minutes) after formalin [1, 4]: trends to reduce
grooming in late phase (9-45 minutes) after formalin [1, 4]: trends to reduce
pin-prick response score, contralateral side ([2]; CNO i.p. at D26): No significant effects
von Frey detection threshold, contralateral side ([2]; CNO i.p. at D26): No significant effects
von Frey detection threshold, ipsilateral side, compared to post-operative days 21 and 27 ([2]; CNO i.p. at D26, D21 F=20.4, P=0.004, D27 F=7.8, P=0.03): significantly increased
pin-prick response score, ipsilateral side, compared to post-operative days 21 and 27 ([2]; CNO i.p. at D26, D21 F=32, P=0.001, D27 F=21, P=0.004): significantly decreased
von Frey detection threshold, ipsilateral side, compared to vehicle treated animals ([2]; n=4 per group, CNO i.p. at D26, 30 min prior to testing, F=7.8, P=0.03): significantly increased
pin-prick response score, ipsilateral vibrissal pad, compared to vehicle treated animals ([2]; n=4 per group, CNO i.p. at D26, F=7.7, P=0.03): significantly decreased
von Frey detection threshold, contralateral vibrissal pad ([3]; F=0.4, P=0.6): no significant effect
von Frey detection threshold, ipsilateral vibrissal pad ([3]; F=1.4, P=0.3): no significant effect
